As usually defined, the IC50 is the concentration at which inhibition is half-maximal. As a reminder, the Kd is the concentration at which binding is half-saturated.

Experiment [1] has as its system SK-BR-3. Briefly: Cytotoxicity against SKBr3 cells. The format is functional, cell-based. The settings on record: Homo sapiens.
For experiment [2], the target named is Heat shock protein HSP 90-alpha (Homo sapiens, UniProt P07900). Briefly: Binding affinity for human heat shock protein 90 in scintillation proximity assay.

As to `CO[C@H]1C[C@H](C)CC2=C(NCCN(C)C)C(=O)C=C(NC(=O)/C(C)=C/C=C3/NC(=O)O[C@@H](/C(C)=C/[C@H](C)[C@H]1O)[C@H]3OC)C2=O`, in experiment [1], the IC50 amounted to 4500 nM. This compound displayed a Kd in experiment [2] of over 100000 nM.
The corresponding values for `CO[C@H]1/C=C\C=C(/C)C(=O)NC2=CC(=O)C(NCCN(C)C)=C(C[C@@H](C)C[C@H](OC)[C@H](O)[C@@H](C)/C=C(\C)[C@@H]1OC(=O)NCC(N)=O)C2=O` are 1400 nM and over 100000 nM.
The corresponding values for `CO[C@H]1/C=C\C=C(/C)C(=O)NC2=CC(=O)C(N3CCC3)=C(C[C@@H](C)C[C@H](OC)[C@H](O)[C@@H](C)/C=C(\C)[C@@H]1OC(=O)NN)C2=O` are 530 nM and over 100000 nM.
On the same counts, the results for `CNC(=O)O[C@H]1/C(C)=C/[C@H](C)[C@@H](O)[C@@H](OC)C[C@H](C)CC2=C(NCCN(C)C)C(=O)C=C(NC(=O)/C(C)=C/C=C\[C@@H]1OC)C2=O` are 420 nM and over 100000 nM.
In experiment [1], `CONC(=O)O[C@H]1/C(C)=C/[C@H](C)[C@@H](O)[C@@H](OC)C[C@H](C)CC2=C(NCCN(C)C)C(=O)C=C(NC(=O)/C(C)=C/C=C\[C@@H]1OC)C2=O` had an IC50 of 490 nM. Moreover, the Kd in experiment [2] was over 100000 nM.
On to `CO[C@H]1/C=C\C=C(/C)C(=O)NC2=CC(=O)C(NCCN(C)C)=C(C[C@@H](C)C[C@H](OC)[C@H](O)[C@@H](C)/C=C(\C)[C@@H]1OC(=O)NCCN(C)C)C2=O`, for which the IC50 in experiment [1] was determined as 460 nM. This compound showed a Kd in experiment [2] of over 100000 nM.
As to `CO[C@H]1/C=C\C=C(/C)C(=O)NC2=CC(=O)C(N)=C(C[C@@H](C)C[C@H](OC)[C@H](O)[C@@H](C)/C=C(\C)[C@@H]1OC(N)=O)C2=O`, the Kd in experiment [2] turned out to be 100 nM.
The compound `CO[C@H]1/C=C\C=C(/C)C(=O)NC2=CC(=O)C(NCCN(C)C)=C(C[C@@H](C)C[C@H](OC)[C@H](O)[C@@H](C)/C=C(\C)[C@@H]1OC(=O)N(C)N)C2=O` returned a 50% inhibitory concentration (IC50) in experiment [1] of 2500 nM. The same compound came in with a dissociation constant (Kd) in experiment [2] of over 100000 nM.
The corresponding values for `CO[C@H]1/C=C\C=C(/C)C(=O)NC2=CC(=O)C(NCCN(C)C)=C(C[C@@H](C)C[C@H](OC)[C@H](O)[C@@H](C)/C=C(\C)[C@@H]1OC(=O)NO)C2=O` are 220 nM and 18000 nM.
On the same counts, the results for `CO[C@H]1/C=C\C=C(/C)C(=O)NC2=CC(=O)C(N3CCC3)=C(C[C@@H](C)C[C@H](OC)[C@H](O)[C@@H](C)/C=C(\C)[C@@H]1OC(=O)NO)C2=O` are 640 nM and over 100000 nM.
On the same counts, the results for `CO[C@H]1/C=C\C=C(/C)C(=O)NC2=CC(=O)C(NCCF)=C(C[C@@H](C)C[C@H](OC)[C@H](O)[C@@H](C)/C=C(\C)[C@@H]1OC(=O)NN)C2=O` are 2100 nM and over 100000 nM.
On to `CO[C@H]1/C=C\C=C(/C)C(=O)NC2=CC(=O)C(NCCF)=C(C[C@@H](C)C[C@H](OC)[C@H](O)[C@@H](C)/C=C(\C)[C@@H]1OC(=O)NO)C2=O`, for which the IC50 in experiment [1] came out at 1500 nM. For the same compound, the Kd in experiment [2] was over 100000 nM.
On the same counts, the results for `CO[C@H]1/C=C\C=C(/C)C(=O)NC2=CC(=O)C(N)=C(C[C@@H](C)C[C@H](OC)[C@H](O)[C@@H](C)/C=C(\C)[C@@H]1OC(=O)c1ccc[nH]1)C2=O` are 1900 nM and over 100000 nM.
For `CO[C@H]1/C=C\C=C(/C)C(=O)NC2=CC(=O)C(NCCN(C)C)=C(C[C@@H](C)C[C@H](OC)[C@H](O)[C@@H](C)/C=C(\C)[C@@H]1OC(=O)c1c[nH]cn1)C2=O`, the midpoint of inhibition in experiment [1], the IC50, lay at 1200 nM. This compound yielded an equilibrium dissociation constant (Kd) in experiment [2] of over 100000 nM.
The corresponding values for `CO[C@H]1/C=C\C=C(/C)C(=O)NC2=CC(=O)C(NCCN(C)C)=C(C[C@@H](C)C[C@H](OC)[C@H](O)[C@@H](C)/C=C(\C)[C@@H]1OC(=O)NN)C2=O` are 140 nM and over 100000 nM.
The corresponding values for `CO[C@H]1/C=C\C=C(/C)C(=O)NC2=CC(=O)C(NCCN(C)C)=C(C[C@@H](C)C[C@H](OC)[C@H](O)[C@@H](C)/C=C(\C)[C@@H]1OC(=O)NCCO)C2=O` are 390 nM and over 100000 nM.
On the same counts, the results for `CO[C@H]1/C=C\C=C(/C)C(=O)NC2=CC(=O)C(NCCN(C)C)=C(C[C@@H](C)C[C@H](OC)[C@H](O)[C@@H](C)/C=C(\C)[C@@H]1OC(=O)c1ccc[nH]1)C2=O` are 410 nM and over 100000 nM.
For `CO[C@H]1/C=C\C=C(/C)C(=O)NC2=CC(=O)C(NCCF)=C(C[C@@H](C)C[C@H](OC)[C@H](O)[C@@H](C)/C=C(\C)[C@@H]1OC(N)=O)C2=O`, the dissociation constant Kd in experiment [2] was determined as 800 nM.
Still for that read-out and setting: the figure for `CO[C@H]1/C=C\C=C(/C)C(=O)NC2=CC(=O)C(N3CCC3)=C(C[C@@H](C)C[C@H](OC)[C@H](O)[C@@H](C)/C=C(\C)[C@@H]1OC(N)=O)C2=O` is 1400 nM.

These data come from ChEMBL document CHEMBL1143641, “Structure-based design of 7-carbamate analogs of geldanamycin” (Bioorg Med Chem Lett, 2005).
